Laboratory results: US7081476B2, “Tocopherol enriched compositions for reducing IL6 levels” (Galileo Pharmaceuticals, Inc., priority 2001, dated 2006)
Several values for one entry are separate records, joined by “and”; a condition that tells them apart may be missing. Identical values can stand only once. Entries after “also recorded” stand apart in the source; their conditions may differ.

How the values were obtained:
expression of ELAM = experiment: Cell-ELAM (E-selectin) assay in LPS/IL-1β stimulated endothelial cells; type: cell-based; conditions: for ELAM production (in words): activated endothelial cells
Method: Cell-ELAM Assay. Endothelial-Leukocyte Adhesion Molecule (ELAM), also known as E-selectin, is expressed on the surface of endothelial cells. In this assay, lipopolysaccharide (LPS) and IL-1β are used to stimulate the expression of ELAM; test agents are tested for their abilities to reduce this expression, in accordance with studies showing that reduction of leukocyte adhesion to endothelial cell surface is associated with decreased cellular damage (e.g., Takada, M., Et al., Transplantation 64: 1520–25, 1997; Steinberg, J. B., et al., J. Heart Lung Trans. 13:306–313, 1994).
Endothelial cells may be selected from any of a number of sources and cultured according to methods known in the art; including, for example, coronary artery endothelial cells, human brain microvascular endothelial cells (HBMEC; Hess, D. C., et al., Neurosci. Lett. 213(1): 37–40, 1996), or lung endothelial cells. Cells are conveniently cultured in 96-well plates. Cells are stimulated by adding a solution to each well containing 10 μg/ml LPS and 100 pg/ml IL-1β for 6 hours in the presence of test agent (specific concentrations and time may be adjusted depending on the cell type). Treatment buffer is removed and replaced with pre-warmed Fixing Solution® (100 μl/well) for 25 minutes at room temperature. Cells are then washed 3×, then incubated with Blocking Buffer (PBS+2% FBS) for 25 minutes at room temperature. Blocking Buffer containing Monoclonal E-Selectin Antibody (1:750, Sigma Catalog #S-9555) is added to each well. Plates are sealed and stored at 4° overnight. Plates are washed 4× with 160 μL Blocking Buffer per well. Second Antibody-HRP diluted 1:5000 in Blocking Buffer is then added (100 μL/well), and plates are incubated at room temperature (protected from light) for two hours. Plates are then washed 4× with Blocking Buffer before addition of 100 μL of ABTS Substrate solution at room temperature (Zymed, Catalog #00–2024). Wells are allowed to develop for 35 minutes, before measurement at 402 nm in a Fluoroskan® Reader with shake program for 10 seconds. Positive results are recorded as a decrease in ELAM concentration in tested wells, as compared to control wells.

[1] = tested on: CRP production in human Hep3B cells; experiment: Human Hep3B cells CRP assay (IL-1β, IL-6 and dexamethasone stimulated, CRP ELISA); type: cell-based; conditions: for reducing CRP production/levels (in words): Hep3B cells stimulated with IL-1B, IL-6 and dexamethasone
Text: A. Human Hep3B Cells—CRP assay. Hep3B Cell Line is obtained from the American Type Culture Collection (ATCC Catalog No. HB-8064). The Hep3B cell line was derived from liver tissue of […]. The cells are epithelial in morphology and produce tumors in nude mice. The cells produce α-fetoprotein, hepatitis B surface antigen, albumin, α-2-macroglobulin, α-1-antitrypsin, transferrin, plasminogen, complement C3 and β-lipoprotein (Knowles B B, et al., Science, 1980, 209:497–499). This cell line has been widely used to study hepatocyte cytokine and acute phase protein release (e.g., Damtew B, et al., 1993, J Immunol 150:4001–4007).
HEP3B cells are grown in Minimum Essential Medium (MEM; GIBCO) supplemented with 10% Fetal Bovine Serum (FBS; Hyclone), 1× Penicillin/Streptomycin (GIBCO, Cat #. 15140-122) and 0.1 mM non-essential amino acids (GIBCO, Catalog No. 11140-050). Cells are thawed and transferred to warm medium according to standard methods known in the art.
Cells are incubated in flasks at 37° C. with 5% CO2 in an air atmosphere incubator. HEP3B growth media is changed every 2 days until the cells reach 70–80% confluence (approx. 3–4 days). For assay, the cells are transferred to 96-well plates, seeded at 5000 cells per well in culture media, and left to grow for 7 days in a 37° C. incubator (air supplemented with 5% CO2). Media is replaced daily until assay.
Test compounds are diluted into “Stimulus Buffer” (MEM medium containing 0.1 mM non-essential amino acids, 1× penicillin/streptomycin, 10% FBS with 10 ng/ml IL-1β, 20 ng/ml IL-6 and 1 μM dexamethasone. Media is removed from the cells and is replaced with 200 μl of test dilution. Cells are returned to the incubator for three days at 37° C. CRP ELISA is then performed on supernatant from the cells, as described below.
Costar EIA/RIA plates are coated with rabbit anti-human CRP (DAKO) diluted 1:4000 in carbonate buffer (100 μl/well) for 45 minutes at 37° C. Plates are then washed 5× with CRP washing buffer (50 mM Tris-HCI, 0.3M NaCl, […], pH 8.0) using an automatic plate washer. Plates may be dried, covered and refrigerated until use. Supernatant (100 μl) is removed from each well of the test plates and added to the corresponding well of a precoated ELISA plate.
100 μl HRP-conjugated rabbit anti-human CRP (DAKO) diluted 1:500 (in CRP wash buffer) is added to each well, followed by incubation for 30 minutes at 37° C. […] Finally, 50 μl of 1M H2SO4 is added to each well and absorbance at 450 nm is immediately measured in a microtiter spectrophotometer.
CRP measured as above is normalized to cell count per well, using a cell viability assay, such as the Cell Tracker Green assay. […] Plates are immediately read using a Fluoroskan® flourometer with a 485 excitation/538 emission filter pair.

[2] = tested on: inflammation secondary to exposure to arachidonic acid; experiment: Arachidonic acid mouse ear inflammation model; type: in vivo; conditions: topical to left ear, CD-1 mice, one hour after treatment
Method: This assay measures the ability of test compounds to prevent or reduce inflammation secondary to oxazolone or arachidonic acid.
A. Arachidonic acid. Albino male CD-1 mice, 7–9 weeks old were used in this test. A 20% (w/v) arachidonic acid solution in acetone is prepared. Twenty microliters of the arachidonic acid solution is applied to the dorsal left ear of the mouse. Immediately thereafter, test compounds (20 μL in 70% ethanol/30% propylene glycol) are applied to the left ear. The untreated right ears served as control. Mice are sacrificed by CO2 inhalation, one hour after treatment. The left and right ears are removed and 7 mm punch biopsies taken from each. The punch biopsies are weighed, and the differences calculated. […] Other non-alpha-tocopherol enriched tocopherol compositions can be tested for their ability to reduce inflammation in this model.

[3] = tested on: IL-6 present in edematous fluid; experiment: Carrageenan-induced rat paw edema assay, IL-6 in edematous fluid; type: in vivo; conditions: rats

| EC50 (expression of ELAM; endothelial cells, LPS and IL-1β, read-out: EC50 reduce the expression of ELAM) | Compound | ELAM production (in words) (expression of ELAM) | activity in ELAM assay (expression of ELAM; at 1000 micromolar) | reducing CRP production/levels (in words) [1] | reducing CRP levels ([1]; at about 3 to about 10 micromolar, Hep3B cells) | reduce inflammation secondary to arachidonic acid (ear punch weight difference) [2] | IL-6 levels in the edematous fluid (in words) ([3]; 10–100 mg/kg oral pretreatment over 3 days) | reduction in IL-6 present in edematous fluid ([3]; 3 days, 10–100 mg/kg/day oral pre-treatment, p<0.001) |
| --- | --- | --- | --- | --- | --- | --- | --- | --- |
| – | Cc1c(C)c2c(c(C)c1O)CC[C@@](C)(CCC[C@H](C)CCC[C@H](C)CCCC(C)C)O2 (relative stereo) [alpha-tocopherol, [2R-2R*(4R*,8R*)]-3,4-dihydro-2,5,7,8-tetramethyl-2-(4,8,12-trimethyltridecyl)-2H-1-benzopyran-6-ol, reference compound] | not | not active | – | – | – | – | – |
| 300 to 1000 µM and 600 µM | Cc1cc(O)cc2c1O[C@](C)(CCC[C@H](C)CCC[C@H](C)CCCC(C)C)CC2 (relative stereo) [delta-tocopherol, [2R-[2R*(4R*,8R*)]]-3,4-dihydro-2,8-dimethyl-2-(4,8,12-trimethyltridecyl)-2H-1-benzo-pyran-6-ol] | decreased | – | effective; also recorded: able to reduce | – | – | – | – |
| – | Cc1cc(O)c(C)c2c1OC(C)(CCCC(C)CCCC(C)CCCC(C)C)CC2 (stereo not drawn) [beta-tocopherol, 3,4-dihydro-2,5,8-trimethyl-2-(4,8,12-trimethyltridecyl)-2H-1-benzopyran-6-ol] | decreased | – | effective; also recorded: able to reduce | about 50% | – | – | – |
| – | Cc1c(O)cc2c(c1C)OC(C)(CCCC(C)CCCC(C)CCCC(C)C)CC2 (stereo not shown) [gamma-tocopherol, 3,4-dihydro-2,7,8-trimethyl-2-(4,8,12-trimethyltridecyl)-2H-1-benzyopyran-6-ol] | decreased | – | effective; also recorded: able to reduce | – | able to reduce inflammation | significantly reduced | 42 |
